Where two headings read alike, the source gives them in different places.
How the values were obtained:
[1] = tested on: Leishmania infantum; assay: Leishmanicidal activity against promastigotes (resazurin); format: cell-based; conditions: promastigote form, 24 h treatment, resazurin; read-out: IC50 L. infantum
Method in brief: (§1)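 Stationary-phase (day 5) metacyclic promastigotes were purified by centrifugation and plated at 1 × 10^7 parasites per well in Schneider medium. Compounds were tested in triplicate from 500 µM down to 3.9 µM by serial dilution for 24 h. Viability was read by resazurin fluorescence.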

[2] = tested on: Leishmania braziliensis; assay: as above; format: cell-based
Method in brief: as §1

[3] = molecular target: T1, LbOYE (Leishmania braziliensis, UniProt A4H6Z3); assay: LbOYE enzyme kinetics (NADPH decay at 340 nm); format: biochemical; conditions: 20 µmol L^−1 compound, 1 µmol L^−1 LbOYE, 100 µmol L^−1 NADPH; substrates NEM and O2
T1 sequence (A4H6Z3 entry or part of it): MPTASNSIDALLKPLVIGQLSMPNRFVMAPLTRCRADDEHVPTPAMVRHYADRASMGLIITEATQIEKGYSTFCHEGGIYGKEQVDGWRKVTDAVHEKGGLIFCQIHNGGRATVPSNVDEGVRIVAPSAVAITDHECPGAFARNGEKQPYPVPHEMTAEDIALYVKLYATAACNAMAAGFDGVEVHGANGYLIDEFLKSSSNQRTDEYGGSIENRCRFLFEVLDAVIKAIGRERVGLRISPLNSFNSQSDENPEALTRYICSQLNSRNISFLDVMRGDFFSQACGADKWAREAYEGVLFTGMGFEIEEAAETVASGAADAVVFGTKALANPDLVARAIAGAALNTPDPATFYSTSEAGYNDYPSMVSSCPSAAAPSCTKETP
Method: The initial rates were obtained through the decay of the band at 340 nm referring to the maximum absorption of the NADPH (Nicotinamide Adenine Dinucleotide Phosphate) reducer, as previously reported. Solutions containing 1 µmol L^−1 of LbOYE, DMSO or 20 µmol L^−1 of the tested compounds from a stock solution at a concentration of 5 mmol L^−1 in DMSO were prepared in the presence and absence of the substrate N-Ethylmaleimide (NEM). These solutions were left for 30 min at room temperature. After 30 min, the NADPH reducer was added at a final concentration of 100 µmol L^−1.
Figure 7 Initial velocity (V0) for the reaction between 1 µmol L^−1 of LbOYE and 100 µmol L^−1 of NADPH in the presence of DMSO (control) or 20 µmol L^−1 of the compounds tested. Using (A) 100 µmol L^−1 of NEM in the presence of O2 and (B) absence of NEM in the presence of O2. Experiments carried out in phosphate buffer 25 mmol L^−1 pH 7.0, NaCl 100 mmol L^−1.

[4] = molecular target: T1, LbOYE; assay: Suppression of intrinsic tryptophan fluorescence of LbOYE; format: binding; conditions: 25 °C
Source text: The recombinant LbOYE protein was produced using the methodology previously described. Briefly, the protein was expressed in strains of bacterial Escherichia coli BL21(DE3) through induction by IPTG using the pET28a:LbOYE vector. The enzyme was purified through a chromatography step of capture by nickel affinity, as the pET28a vector allows the expression of a polyhistidine fusion peptide, located at the N-terminal end of the protein. After affinity purification, the polyhistidine tail was excised by “overnight” incubation with thrombin, and the second purification step was performed using size exclusion chromatography. Purification was evaluated by SDS-PAGE and protein concentration was estimated by spectrophotometry.
The emission spectra of the intrinsic fluorescence of the tryptophan were recorded using a Shimadzu F-4500 spectrofluorometer in the range of 310–420 nm, with opening of slits of excitation and emission at 5.0 nm and λex = 295 nm. Interaction analyzes between LbOYE and ligands were performed at λmax = 333 nm.
(§2) The compounds were solubilized in DMSO and then we made successive dilutions in a Tris-HCl 25 mmol L^−1 buffer, pH 8.0, containing 100 mmol L^−1 of NaCl. For all experiments, the final concentration of DMSO was kept constant and equal to 2.5%. Solutions with increasing concentrations of ligand and constant concentration of LbOYE (1 µmol L^−1) were prepared, which were kept at 25 °C for a period of 1h before acquisition of fluorescence emission spectra.
The results were obtained from the fluorescence emission spectra of the intrinsic tryptophan probe in the presence of the compounds HL1^Ch, HL3^FPh, HL5^NO2Ph, [Au(HL1^Ch)2]Cl and [Ag(HL3^FPh)2]NO3. The bonding parameters were determined by the Hill plot, obtaining the dissociation constant (Kd) through the non-linear adjustment of the saturation curve to the experimental data. The double-log plot was used to determine the bonding constant and the number of bonding sites (n). It also allows the calculation of the bonding constant (Kb) and Kd from 1/Kb.
Equation (1)—Hill’s equation:(1) F0−F/F0=[L]/L+Kd
Equation (2)—Double-log:(2) logF0−F/F0=nlogKb−nlog1/L−(F0−F)[P0]/F
Equation (3)—Equation of Stern–Volmer:(3) F0/F=1+KSV[L]
The study of fluorescence quenching can be affected when the ligand has absorption bands that coincide with excitation and emission wavelengths of fluorescence. This interference is called the internal filter effect, which can be minimized using the procedure described by Equation (4). Fobs and Fcor are the fluorescence intensities at 333 nm measured and corrected, respectively; l represents the optical step where the absorption and emission of light occurs and C0 is the concentration of the ligand.
For the correction of the internal filter effect, were used the molar absorptivity coefficient values in the excitation (295 nm) and emission (333 nm) lengths, [λ/ε (L mol^−1 cm^−1)]; HL1^Ch (εex = 373 and εem = 117), HL3^FPh (εex = 1191 and εem = 57), HL5^NO2Ph (εex = 6162 and εem = 9124), Au1 (εex = 7045 and εem = 4008) and Ag3 (εex = 9431 and εem = 3281).

[5] = Solubility in buffer for the fluorescence experiments; format: physicochemical; conditions: Tris-HCl buffer
Method: as §2
After the synthesis and structural characterization of the compounds, studies of interaction of the compounds and the recombinant LbOYE were carried out by fluorescence measurements.

Kd ([4]; Hill plot (n = 1), Equation (1), Tris-HCl pH 8.0, 2.5% DMSO, read-out: Kd * (Hill plot)): 9.6 ± 0.7 µM
Ksv *** (Stern–Volmer constant) ([4]; Stern–Volmer, Equation (3)): 23 ± 2 × 10^4
Kd ([4]; double log, Equation (2), Kd = 1/Kb, read-out: Kd ** (double log) (converted)): 11.2 ± 0.3 µM
n ** (number of bonding sites) ([4]; double log, Equation (2)): 2.0 ± 0.1
Solubility in buffer at the concentrations for the fluorescence experiments, in words [5]: passed this stage
Compound: Cc1ccc(S(=O)(=O)NNC(Nc2ccc(F)cc2)=[S][Ag+][S]=C(NNS(=O)(=O)c2ccc(C)cc2)Nc2ccc(F)cc2)cc1.O=[N+]([O-])[O-] [Ag3, [Ag(HL3^FPh)2]NO3]
IC50 [1]: 92.83 ± 0.072 µM
IC50 ([2]; promastigote form, 24 h treatment, resazurin, read-out: IC50 L. braziliensis): 233.9 ± 0.031 µM
SI L. braziliensis ([2]; selectivity index = CC50 (Vero) / IC50 (L. braziliensis promastigotes)): >2.14
Inhibition of LbOYE reaction (initial velocity V0), in words [3]: capable of inhibiting the reaction of the enzyme both with the NEM and for O2

From article PMC11053681, “Gold(I) and Silver(I) Complexes Containing Hybrid Sulfonamide/Thiourea Ligands as Potential Leishmanicidal Agents” (Pharmaceutics, 2024)
